Assays:
[1] = system: glutamate receptor; assay: whole-cell patch-clamp recording of sEPSCs; assay type: cell-based, human; conditions: holding potential −70 mV; CNQX 10 μM applied with D-APV 50
Procedure: Whole-cell patch-clamp recordings were made from human PSC-derived cortical glutamatergic and GABAergic neurons. The bath solution consisted of 135 mM NaCl, 3 mM KCl, 2 mM CaCl2, 1 mM MgCl2, 10 mM HEPES, 11 mM glucose, 10 mM sucrose, pH 7.4. Recording pipettes were filled with an intracellular solution containing 120 mM potassium D-gluconate, 1 mM ethylene glycol-bis (β-aminoethyl ether) N,N,N′,N′-tetraacetic acid (EGTA), 10 mM 4-(2-hydroxyethyl)piperazine-1-ethanesulfonic acid (HEPES), 4 mM ATP-Mg, 0.3 mM GTP-Na, 10 mM phosphocreatine, 0.1 mM CaCl2, 1 mM MgCl2, pH 7.2, 280-290 mOsm/L. Briefly, the neurons were held at −70 mV to record the Na+/K+ channel activities with voltage-clamp model. […] Spontaneous excitatory postsynaptic currents (sEPSCs) and spontaneous inhibitory currents (sIPSCs) were recorded in gap-free mode at a holding potential of −70 mV and 0 mV, respectively. sEPSCs were blocked by application of the glutamate receptor antagonist 6-Cyano-7-nitroquinoxaline-2,3-dione (CNQX, 10 μM) and D-(−)-2-amino-5-phosphonopentanoic acid (D-APV, 50 sIPSCs were blocked by application of the GABAA receptor antagonist bicuculline (10 An Olympus BX51WI microscope was used to visualize neurons. A MultiClamp 700B amplifier (Axon instruments, Molecular Devices, Sunnyvale, Calif., USA) was used to investigate the voltage clamp and current clamp recordings. […]

[2] = system: hPSC-derived cortical neural progenitor cells (NPCs); assay: Live/Dead assay of hPSC-NPCs cultured in fibrin gel; assay type: cell-based, human
Procedure: For cell culturing in the fibrin gel, dissociated hPSC-NPCs at a density of 1×10^6 were mixed with fibrinogen at the following concentrations (1, 2.5, 5, 10 and 20 mg/mL) as show in FIG. 5. 0.5 mg/mL aprotinin was added for preventing gel degradation. 1 μL of the fibrinogen-laden cells were dropped on the poly-O coated plates at RT (room temperature). 1 different concentrations of thrombin (0.5, 1, 2.5, 5 and 10 U) solution with 2.5 mM CaCl2 were then added and mixed with the cells-fibrinogen solution. Fresh medium was added after gelation. Cells were encapsulated in the fibrin gel constructs and cultured at 37° C. incubator for characterization. […] The cells, however, tended to aggregate at higher fibrinogen levels. Thus, 2.5 or 5 mg/mL fibrinogen with 0.5 or 1 U thrombin was used for identifying an optimal gelation time.
The cell viability was measured by Live/Dead assay. Briefly, Live/Dead® staining kit (Molecular Probes) was used to assess cell viability. Immediately after harvesting, the cells were incubated in DMEM/F12 containing 1 μM calcein AM and 2 μM ethidium homodimer I for 30 min. […] The number of live (green) and dead (red) cells were counted in each field using Cell Counter in Image-J. The live/dead cell numbers from the five images of one sample were averaged to give each data point and five samples were used to determine the viability.

Row | Molecule | spontaneous excitatory postsynaptic currents (sEPSCs) [1] | further results
1 | N[C@H](CCCP(=O)(O)O)C(=O)O [D-APV, D-(−)-2-amino-5-phosphonopentanoic acid] | blocked | –
2 | N#Cc1cc2c(cc1[N+](=O)[O-])=NC(=O)C(=O)N=2 [CNQX, 6-Cyano-7-nitroquinoxaline-2,3-dione] | blocked | –
3 | thrombin | – | cell viability (percent of live cells to total cells) ([2]; increasing thrombin concentrations at fixed fibrinogen 2.5 mg/ml): decreased with increasing thrombin concentrations
4 | fibrinogen | – | cell viability (percent of live cells to total cells) ([2]; increasing fibrinogen concentrations at fixed low thrombin (0.5 U)): not influenced

Reference: patent publication US20230193199A1, “Methods for Printing Functional Human Neural Tissue” (Wisconsin Alumni Research Foundation, priority 2021, published 2023)
